Measurements taken from a melting point compilation (Tetko et al.; mined from patent text by program, amines drawn as free bases though some values may be those of a salt).

Row | Structure (SMILES) | melting point
1 | CCOCCc1c(N=[N+]=[N-])nc(NC(=O)NC)nc1-c1ccccc1 | 128 to 130 °C
2 | CC(O)(c1ccc(Oc2ccccc2)cc1)c1cccnc1 (stereo unspecified) | 130 to 132 °C
3 | O=C(O)c1cc(=O)c(-c2ccc(OCc3ccccc3)c(OCc3ccccc3)c2)co1 | 206 to 208 °C
4 | O=C1NCCc2c(OCC3CO3)cccc21 (stereo unspecified) | 165 to 166 °C
5 | COC(=O)CCc1cc(C)on1 | 54 to 55 °C
6 | CC(C)N1C(=O)C(C(N)=O)N(c2cc(Cl)cc(Cl)c2)C1=O (stereo unspecified) | 200 °C
7 | COc1cc(OC)nc(SC2CCCC2CC(=O)O)n1 (stereo unspecified) | 125 to 127 °C
8 | CCN1N=C(c2ccc(OC)c(OC)c2)[C@@H]2CCCC[C@@H]2C1=O (relative stereo) | 105 to 106 °C
9 | COc1ccccc1S(=O)(=O)OCC(=O)c1ccccc1 | 88 °C
10 | CC(=O)c1c(C)nc2c(OCc3c(Cl)ccc(S(=O)(=O)N4CCC[C@H]4C(=O)NCCCNC(=O)c4ccc(C#N)cc4)c3Cl)cccn12 | 100 to 102 °C
11 | CSC=CC(C)(C)C(=O)Nc1ccc(Cl)cc1 | 105 to 106 °C
12 | Cc1nn(-c2ccccn2)cc1COc1ccc(C=O)cc1 | 84 to 85 °C
13 | COc1c(-c2ccc3cc(NS(C)(=O)=O)ccc3c2)cc(NC(N)=O)cc1C(C)(C)C | > 300 °C
14 | CCCc1nc(-n2cccc2)c(C(=O)OC)[nH]1 | 135 to 138 °C
15 | CC(SC1COC(c2ccc(C(=O)Nc3ccc(OC(F)(F)F)cc3)cc2)OC1)C(O)(Cn1cncn1)c1ccc(F)cc1F (stereo unspecified) | 180 °C
16 | COc1ccc2ncc3c(=O)n(-c4ccccc4)oc3c2c1 | 140 °C
17 | CNC(=O)C(S(=O)(=O)CCCl)S(=O)(=O)CCCl | 173 to 175 °C
18 | CC(=O)c1ccc(Cc2c(Cl)cc(NN=Cc3ccccc3)cc2Cl)cc1 | 137 to 139 °C
19 | CCCCSc1cc(C(=O)OC)cc(S(N)(=O)=O)c1Cc1ccccc1 | 118 to 120 °C
20 | Nc1nc(NC2CCCCC2)nc(NC2CCCCC2)n1 | 153 °C
21 | COc1ccc(Cn2c(=O)n([C@H]3CC[C@H](O)CC3)c3ccc(C(F)(F)F)cc32)cc1OC | 108 to 110 °C
22 | CC1(C)C=Cc2c(O)cc(-c3cc4ccc(O)cc4o3)cc2O1 | > 250 °C
23 | Cc1ccccc1C(CCC(=O)O)Oc1cc(OCc2cccc(C(=O)O)c2)ccc1[N+](=O)[O-] (racemic) | 85 to 87 °C
24 | NC(=O)c1cccc(-c2cccc3sc(Cc4ccc(F)c(F)c4)cc23)c1 | 189 to 190 °C

Row | Structure (SMILES) | melting point
25 | O=c1oc2cc(Br)ccc2c(O)c1[N+](=O)[O-] | 155 to 157 °C
26 | CC(C)(C)OC(=O)c1ncn2c1[C@@H]1CCCN1C(=O)c1c-2ccc(Cl)c1Cl | 213 to 214 °C
27 | COc1cc(CC#N)ccc1OCCOc1ccc(F)cc1 | 126 to 128 °C
28 | O=C(OC(c1ccc(Cl)cc1Cl)C(Oc1ccc(Cl)cc1)n1cncn1)c1ccc(Cl)cc1Cl (stereo unspecified) | 132 to 135 °C
29 | Nc1nc(NCCCCCCNS(=O)(=O)c2cccc3ccccc23)nc2ccccc12 | 98 to 101 °C
30 | CCCCn1c(=O)c2c(N3CCN(C)CC3)cc(Cl)cc2n(Cc2ccccc2)c1=O | 121 to 123 °C
31 | CCC1(CCCN=[N+]=[N-])C(=O)NC(=O)NC1=O | 182 to 184 °C
32 | O=C1C(Cl)=C(c2ccccc2)C(=O)N1Nc1ccc(F)cc1 | 115 to 117 °C
33 | O=CC1CC1Nc1nccc(-n2nnc3ccccc32)n1 (stereo unspecified) | 99 to 100 °C
34 | Cc1c(Br)cc(Cl)c(NS(=O)(=O)c2n[nH]c(NC=O)n2)c1Cl | > 290 °C
35 | CCC(C)OS(=O)(=O)c1ccc(C(=O)c2cc(Cl)ccc2Cl)cc1 (stereo unspecified) | 73 to 74 °C
36 | CCC(C(=O)OC1CC(=O)NC1=O)c1ccccc1 (stereo unspecified) | 96.5 to 97.5 °C
37 | CCCCN1CCC(CNC(=O)c2cc(Cl)c(N)n3cc(C)nc23)CC1 | 188 to 191 °C
38 | CC(=O)Nc1nc2c(Oc3cc(-c4ccc5c(c4)OC(C)(C)C5)ncn3)cccc2s1 | 224 to 225 °C
39 | COc1ccc(-c2cnc(-c3ccccc3)[nH]c2=O)cc1OC | 230 °C
40 | O=[N+]([O-])c1cccnc1NCC(O)c1ccccc1 (stereo unspecified) | 101 to 103 °C
41 | CCN(CC)c1cccc2nc(C(O)c3ccc(Cl)cc3Cl)n(CCO)c12 (stereo unspecified) | 177 to 179 °C
42 | Cc1oc(-c2ccccc2)nc1COc1ccc(COc2cccnc2CC#N)cc1 | 138 to 139 °C
43 | CCCc1ccnc(C(=O)c2[nH]c3cc(Cl)ccc3c2CC(=O)O)c1 | 189 to 191 °C
44 | CCCc1nc2ccccc2n1Cc1ccc(C2CCCC2C(=O)O)cc1 (stereo unspecified) | 179 to 180 °C
45 | OCCOc1cn(-c2ccc(F)cc2)c2cc(Cl)ccc12 | 97 to 98 °C
46 | N#CC=C(N)c1ccc2ccccc2c1 | 85 to 90 °C
47 | O=CN(O)C(CCc1ccc(C(=O)O)cc1)CS(=O)(=O)c1ccc(Oc2ccc(OC(F)(F)F)cc2)cc1 (stereo unspecified) | 189 to 191 °C
48 | CCCCC(CC)Cn1c(=O)nc(N(C)C)n(C)c1=O (stereo unspecified) | 74 to 75 °C

Row | Structure (SMILES) | melting point
49 | CC(C(=O)N1CCCc2ccccc21)N(C(=O)CN1C(=O)c2ccccc2C1=O)c1ccccc1 (racemic) | 191 °C
50 | COc1ccc2cc(OCc3ccccc3)c(C(=O)O)cc2c1 | 177 to 179 °C
51 | CC(CCNc1cccc(-c2ccnc3c(C(=O)c4cccs4)cnn23)c1)c1ccccc1 (stereo unspecified) | 64 to 68 °C
52 | COC1=C(OC)C(=O)C2=C(CCC(CCOc3ccccc3)CC2)C1=O | 71 to 72 °C
53 | CC(=O)N1CCc2cc(C(=O)CN(Cc3ccccc3)Cc3ccccc3)ccc21 | 130 °C
54 | CCCOc1ccc2c(c1)C(N(C)S(C)(=O)=O)=CC(C)(C)O2 | 93 to 95 °C
55 | CC(=O)NC(=Cc1cccs1)C1=NC(=Cc2cccs2)C(=O)O1 | 218 °C
56 | Cc1cc(C2=NN(c3nncs3)C(C)Cc3cc4c(cc32)OCO4)ccc1[N+](=O)[O-] (stereo unspecified) | 182 to 189 °C
57 | O=C=Nc1cc(Cl)c(Br)cc1CBr | 48 to 50 °C
58 | O=C(O)CCC(=O)Oc1c(Cc2ccccc2)ccc2ccccc12 | 140 °C
59 | CC(C)n1nc(-c2nc(N)c(C(N)=O)nc2-c2ccccc2)ccc1=O | 217 to 220 °C
60 | COc1ccc(C(=NO)c2ccccc2F)c(O)c1Cl | 184 to 186 °C
61 | CCCCCCCCCCc1c(C(=O)OCC)sc2c1sc1c3sc(C(=O)OCC)c(CCCCCCCCCC)c3sc21 | 130 to 132 °C
62 | CC(=O)c1cc(C=O)c(O)cc1O | 134 to 136 °C
63 | CCn1c(CCOC(N)=O)nc(C(C)C)c1Sc1cc(Cl)cc(Cl)c1 | 161 to 162 °C
64 | CCCCOc1ccc(S(=O)(=O)NC(=NO)Nc2ccc(Cl)cc2)cc1 | 175 to 176 °C
65 | CN(C)C=C(C(=O)c1ccccc1)C(=O)c1ccccc1 | 120 °C
66 | CS(=O)(=O)CC(=O)N[C@H]1CC[C@H](CCN2CCC(c3cccc4c3CCO4)CC2)CC1 | 211 °C
67 | Cn1ccnc1Sc1cc(Cl)ccc1N | 116 to 120 °C
68 | CN(C)c1ccnc2c(NC(=O)c3c(Cl)cccc3Cl)cccc12 | 215 to 216 °C
69 | CC(=O)N[C@H](C(=O)N1C[C@@H]2C(=O)CCC(c3ccccc3)(c3ccccc3)[C@@H]2C1)c1ccccc1 | 190 °C
70 | O=CNNc1ccc(NC(=S)Nc2ccccc2)cc1 | 188 °C
71 | CCOC(=O)C(C(=O)OCC)c1n[nH]c(C)c1[N+](=O)[O-] | 100 to 102 °C
